The supplement of paper PMC10883282
± gives the standard deviation of the averaged measurements.

Key:
Test in all cases: relative viability vs DMSO control (72 h) (fraction); higher = more viable cells
SK-LMS-1 = system: SK-LMS-1
In short: (§1)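 After seeding at densities set for 80–90% confluence in 384-well plates, sarcoma cell lines waited 24 h before 2.5 µl of serially diluted compound was added. Source plates held 10 mM down to 0.0002 mM. Plates were incubated 72 h at 37 °C with 5% CO2, with 0.1% DMSO vehicle and a 5 µM positive control, and relative viability was taken from ATPLite as percent growth averaged over up to triplicate wells, with 1 set as full and 0 as none.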

G401 = system: G401
In short: as §1

RD-ES = system: RD-ES
In short: as §1

KHOS-NP = system: KHOS-NP
In short: as §1

SW872 = system: SW872
In short: as §1

MES-SA = system: MES-SA
In short: as §1

CN(C)C/C=C/C(=O)Nc1cc2c(Nc3ccc(F)c(Cl)c3)ncnc2cc1O[C@H]1CCOC1 [Afatinib]
relative viability
Conditions	G401	KHOS-NP	MES-SA	RD-ES	SK-LMS-1	SW872
0.00017 µM	1.02 ± 0.019	1.09 ± 0.018	0.967 ± 0.036	0.992 ± 0.042	1.1 ± 0.056	1.07 ± 0.036
0.00051 µM	1.03 ± 0.054	1.08 ± 0.016	0.955 ± 0.039	0.986 ± 0.04	1.1 ± 0.016	1.14 ± 0.039
0.00152 µM	1.015 ± 0.0047	1.07 ± 0.025	0.948 ± 0.037	1 ± 0.048	1.11 ± 0.027	1.09 ± 0.012
0.00457 µM	1.03 ± 0.021	1.07 ± 0.019	0.947 ± 0.035	0.973 ± 0.044	1.08 ± 0.029	1.11 ± 0.065
0.01372 µM	1.03 ± 0.036	1.07 ± 0.025	0.934 ± 0.041	1 ± 0.027	1.13 ± 0.048	1.07 ± 0.04
0.04115 µM	0.9814 ± 0.0069	1.07 ± 0.032	0.887 ± 0.027	0.969 ± 0.024	1.04 ± 0.05	1.06 ± 0.057
0.1235 µM	0.97 ± 0.039	1.06 ± 0.046	0.885 ± 0.038	0.914 ± 0.039	1.01 ± 0.034	1.02 ± 0.07
0.3704 µM	0.846 ± 0.037	1.08 ± 0.019	0.725 ± 0.024	0.829 ± 0.028	0.879 ± 0.011	0.896 ± 0.057
1.111 µM	0.61 ± 0.0089	1.02 ± 0.046	0.452 ± 0.018	0.647 ± 0.012	0.724 ± 0.021	0.595 ± 0.011
3.333 µM	0.472 ± 0.06	0.967 ± 0.048	0.283 ± 0.04	0.381 ± 0.077	0.462 ± 0.09	0.304 ± 0.0056
10 µM	0.212 ± 0.19	0.0212 ± 0.012	0.24 ± 0.099	0.0144 ± 0.001	0.135 ± 0.2	0.257 ± 0.079
